Tests used:
Assay type in all cases: protein-complex assay
Ecdysone receptor [1] = target: T1, Ecdysone receptor (Myzus persicae, UniProt A3EZJ9+A3EZK0); experiment: Binding affinity to Myzus persicae EcR (green peach aphid)
T1 sequence (A3EZJ9 whole entry): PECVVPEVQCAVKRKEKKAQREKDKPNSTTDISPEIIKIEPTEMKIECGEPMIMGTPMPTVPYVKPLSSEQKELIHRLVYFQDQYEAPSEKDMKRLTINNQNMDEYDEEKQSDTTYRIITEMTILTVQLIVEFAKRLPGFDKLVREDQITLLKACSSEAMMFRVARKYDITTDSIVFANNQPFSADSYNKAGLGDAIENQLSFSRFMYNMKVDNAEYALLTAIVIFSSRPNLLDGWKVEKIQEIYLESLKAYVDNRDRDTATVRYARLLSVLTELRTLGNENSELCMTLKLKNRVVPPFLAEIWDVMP
T1 sequence (A3EZK0 whole entry): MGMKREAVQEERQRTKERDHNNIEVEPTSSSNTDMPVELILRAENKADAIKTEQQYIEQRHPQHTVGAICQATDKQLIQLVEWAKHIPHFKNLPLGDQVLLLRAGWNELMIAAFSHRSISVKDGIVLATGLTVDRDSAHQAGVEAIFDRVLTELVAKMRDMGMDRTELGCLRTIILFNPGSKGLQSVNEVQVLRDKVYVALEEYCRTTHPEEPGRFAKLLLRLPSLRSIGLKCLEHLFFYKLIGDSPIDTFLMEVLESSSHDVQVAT

Ecdysone receptor [2] = target: T2, Ecdysone receptor (Chironomus tentans, UniProt O45117+P49882); experiment: Binding affinity to Chironomus tentans EcR
T2 sequence (P49882 whole entry): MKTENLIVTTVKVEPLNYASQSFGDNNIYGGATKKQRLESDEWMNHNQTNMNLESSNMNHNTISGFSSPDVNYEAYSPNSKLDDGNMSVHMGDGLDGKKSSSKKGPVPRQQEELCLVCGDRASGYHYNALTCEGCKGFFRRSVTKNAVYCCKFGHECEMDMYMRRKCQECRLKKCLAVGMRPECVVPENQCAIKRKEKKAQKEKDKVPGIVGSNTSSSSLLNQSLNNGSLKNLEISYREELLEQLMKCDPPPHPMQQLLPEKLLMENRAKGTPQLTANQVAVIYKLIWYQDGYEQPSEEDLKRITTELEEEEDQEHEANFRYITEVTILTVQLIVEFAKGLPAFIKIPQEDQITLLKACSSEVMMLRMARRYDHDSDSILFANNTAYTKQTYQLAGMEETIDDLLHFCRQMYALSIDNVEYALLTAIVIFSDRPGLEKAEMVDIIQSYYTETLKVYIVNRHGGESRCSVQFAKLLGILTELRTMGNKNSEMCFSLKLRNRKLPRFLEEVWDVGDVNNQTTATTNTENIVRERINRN
T2 sequence (O45117 whole entry): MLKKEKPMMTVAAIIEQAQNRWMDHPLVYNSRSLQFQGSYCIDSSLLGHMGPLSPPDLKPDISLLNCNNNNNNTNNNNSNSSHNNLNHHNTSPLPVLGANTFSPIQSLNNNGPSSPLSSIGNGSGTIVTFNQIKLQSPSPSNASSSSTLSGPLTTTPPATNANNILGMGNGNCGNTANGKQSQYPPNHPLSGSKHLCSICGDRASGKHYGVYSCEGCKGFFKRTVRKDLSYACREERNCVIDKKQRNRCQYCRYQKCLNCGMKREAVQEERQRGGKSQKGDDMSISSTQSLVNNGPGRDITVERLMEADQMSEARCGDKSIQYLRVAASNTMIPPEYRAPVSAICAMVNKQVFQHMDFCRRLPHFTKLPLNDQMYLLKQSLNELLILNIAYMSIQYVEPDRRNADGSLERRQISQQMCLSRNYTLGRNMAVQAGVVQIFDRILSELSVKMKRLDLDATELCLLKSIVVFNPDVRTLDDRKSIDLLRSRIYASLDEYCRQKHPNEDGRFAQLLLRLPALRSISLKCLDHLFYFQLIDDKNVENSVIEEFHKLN

Ecdysone receptor [3] = target: T3, Ecdysone receptor (Anthonomus grandis, UniProt B8RG26+Q4W6C8); experiment: Binding affinity to Anthonomus grandis ecdysone receptor (EcR)
T3 sequence (B8RG26 whole entry): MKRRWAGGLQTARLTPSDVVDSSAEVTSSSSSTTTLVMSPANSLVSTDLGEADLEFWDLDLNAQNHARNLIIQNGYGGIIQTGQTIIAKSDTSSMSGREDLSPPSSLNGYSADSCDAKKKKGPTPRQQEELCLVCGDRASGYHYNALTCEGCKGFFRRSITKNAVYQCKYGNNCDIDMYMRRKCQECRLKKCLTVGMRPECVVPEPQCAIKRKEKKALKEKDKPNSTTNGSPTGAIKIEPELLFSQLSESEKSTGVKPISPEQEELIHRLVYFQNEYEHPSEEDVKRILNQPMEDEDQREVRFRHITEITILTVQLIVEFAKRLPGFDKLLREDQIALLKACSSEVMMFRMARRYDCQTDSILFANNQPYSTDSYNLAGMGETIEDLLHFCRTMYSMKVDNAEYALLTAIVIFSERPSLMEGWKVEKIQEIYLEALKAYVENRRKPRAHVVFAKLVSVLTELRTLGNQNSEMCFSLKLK
T3 sequence (Q4W6C8 whole entry): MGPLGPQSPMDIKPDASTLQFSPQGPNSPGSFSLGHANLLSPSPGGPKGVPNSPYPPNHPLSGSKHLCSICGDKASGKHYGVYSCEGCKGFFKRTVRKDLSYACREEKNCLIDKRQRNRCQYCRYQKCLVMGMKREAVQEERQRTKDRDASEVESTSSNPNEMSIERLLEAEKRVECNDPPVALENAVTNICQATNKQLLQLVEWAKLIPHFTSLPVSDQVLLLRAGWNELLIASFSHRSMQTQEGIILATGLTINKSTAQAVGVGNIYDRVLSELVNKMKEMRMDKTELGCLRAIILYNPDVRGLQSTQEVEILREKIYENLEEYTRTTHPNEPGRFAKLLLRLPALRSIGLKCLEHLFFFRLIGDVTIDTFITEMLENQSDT

CCc1ccc(C(=O)NN(C(=O)c2cc(C)cc(C)c2)C(C)(C)C)cc1 [TEBUFENOZIDE]
Ki (Ecdysone receptor [1]): > 126 µM | Ki (Ecdysone receptor [2]): 0.01 µM | Ki (Ecdysone receptor [3]): 12.6 µM

Reference: ChEMBL document CHEMBL3045439, “Isoforms of the heteropteran Nezara viridula ecdysone receptor: protein characterisation, RH5992 insecticide binding and homology modelling” (Pest Manag Sci, 2011)
